Where “and” joins values, the source holds several entries; their conditions need not be identical. Equal entries are not always repeated. Toxic doses and inconclusive results are not listed. Cut-off read from the data, not from the text of the source: active = T/C of 150% or more; inactive = T/C below 125%. Square brackets hold non-standard residues; d marks the D form. Peptide text beside a SMILES is read from it. Sar = CNCC(=O)O
System: L1210 leukemia ip in BDF1 mice, survival T/C
Test: NCI In Vivo Anticancer Drug Screen. Data for tumor model L1210 Leukemia (intraperitoneal) in B6D2F1 (BDF1) mice
Conditions: endpoint: mean survival time, higher = longer survival
Outline: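 Survival endpoint. Drug-treated group vs vehicle group, expressed as T divided by C. Tumor passaged by transplantation.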

[1] = dose: 50.0 mg/kg/injection, schedule: Q01DX001 (ip), vehicle: saline
[2] = dose: 100.0 mg/kg/injection, schedule: Q01DX001 (ip), vehicle: saline
[3] = dose: 100.0 mg/kg/injection, schedule: Q04DX002 (ip), vehicle: saline
[4] = dose: 200.0 mg/kg/injection, schedule: Q01DX001 (ip), vehicle: saline
[5] = dose: 200.0 mg/kg/injection, schedule: Q04DX002 (ip), vehicle: saline
[6] = dose: 400.0 mg/kg/injection, schedule: Q01DX001 (ip), vehicle: saline
[7] = dose: 400.0 mg/kg/injection, schedule: Q04DX002 (ip), vehicle: saline
[8] = dose: 100.0 mg/kg/injection, schedule: Q04DX003 (ip), vehicle: saline
[9] = dose: 100.0 mg/kg/injection, schedule: Q01DX009 (ip), vehicle: saline with Tween-80
[10] = dose: 200.0 mg/kg/injection, schedule: Q01DX009 (ip), vehicle: saline with Tween-80
[11] = dose: 12.5 mg/kg/injection, schedule: Q04DX003 (ip), vehicle: saline
[12] = dose: 25.0 mg/kg/injection, schedule: Q04DX003 (ip), vehicle: saline
[13] = dose: 50.0 mg/kg/injection, schedule: Q04DX003 (ip), vehicle: saline
[14] = dose: 12.5 mg/kg/injection, schedule: Q01DX009 (ip), vehicle: saline
[15] = dose: 25.0 mg/kg/injection, schedule: Q01DX009 (ip), vehicle: saline
[16] = dose: 50.0 mg/kg/injection, schedule: Q01DX009 (ip), vehicle: saline

Measured: T/C

Nc1ccc2c(c1)C(=O)c1ccccc1C2=O
inactive: [1] 98 % of control | [2] 102 % of control | dose: 100.0 mg/kg/injection, schedule: Q01DX009 (ip), vehicle: saline 92 % of control | [3] 100 % of control | [4] 102 % of control | dose: 200.0 mg/kg/injection, schedule: Q01DX009 (ip), vehicle: saline 92 % of control | [5] 93 % of control | [6] 102 % of control | dose: 400.0 mg/kg/injection, schedule: Q01DX009 (ip), vehicle: saline 92 % of control | [7] 93 % of control

C/C(=N\Sc1ccccc1)c1ccccc1O
inactive: dose: 100.0 mg/kg/injection, schedule: Q04DX002 (ip), vehicle: other 102 % of control | dose: 200.0 mg/kg/injection, schedule: Q04DX002 (ip), vehicle: other 88 % of control

CC1CNC(=O)CC(C)O1 (stereo not drawn)
inactive: [8] 108 % of control | dose: 200.0 mg/kg/injection, schedule: Q04DX003 (ip), vehicle: saline 110 % of control | dose: 400.0 mg/kg/injection, schedule: Q04DX003 (ip), vehicle: saline 104 % of control

CCN(CCO)C(=O)C1C(c2ccccc2)C1c1ccccc1 (stereo not drawn)
inactive: dose: 100.0 mg/kg/injection, schedule: Q04DX002 (ip), vehicle: Klucel (hydroxypropylcellulose) (HPC) 97 % of control | dose: 200.0 mg/kg/injection, schedule: Q04DX002 (ip), vehicle: Klucel (hydroxypropylcellulose) (HPC) 100 % of control | dose: 400.0 mg/kg/injection, schedule: Q04DX002 (ip), vehicle: Klucel (hydroxypropylcellulose) (HPC) 90 % of control

c1n[nH]c2c1CCC2
inactive: dose: 75.0 mg/kg/injection, schedule: Q01DX009 (ip), vehicle: saline with Tween-80 97 % of control | dose: 150.0 mg/kg/injection, schedule: Q01DX009 (ip), vehicle: saline with Tween-80 110 % of control

C=CCNC(=S)Nc1cccc(C(C)OC(=O)NC(C)(C)C)c1 (stereo not drawn)
inactive: [9] 106 % of control | dose: 100.0 mg/kg/injection, schedule: Q04DX003 (ip), vehicle: saline with Tween-80 95 % of control | [10] 107 % of control | dose: 200.0 mg/kg/injection, schedule: Q04DX003 (ip), vehicle: saline with Tween-80 93 % of control | dose: 400.0 mg/kg/injection, schedule: Q04DX003 (ip), vehicle: saline with Tween-80 94 % of control

CC(C)=CC[Se]c1ncnc2c1ncn2C1OC(CO)C(O)C1O (stereo not drawn)
inactive: dose: 12.5 mg/kg/injection, schedule: Q01DX005 (ip), vehicle: saline 91 % of control | dose: 25.0 mg/kg/injection, schedule: Q01DX005 (ip), vehicle: saline 91 % of control | dose: 50.0 mg/kg/injection, schedule: Q01DX005 (ip), vehicle: saline 87 % of control

CN(CC(=O)O)C(=O)CN (H-Gly-[Sar]-OH)
inactive: dose: 25.0 mg/kg/injection, schedule: Q04DX002 (ip), vehicle: saline 113 % of control | dose: 50.0 mg/kg/injection, schedule: Q04DX002 (ip), vehicle: saline 97 % of control | [3] 103 % of control

COC(=O)c1ccccc1C(=S)N1CCOCC1
inactive: dose: 100.0 mg/kg/injection, schedule: Q04DX003 (ip), vehicle: Klucel (hydroxypropylcellulose) (HPC) 97 % of control | dose: 200.0 mg/kg/injection, schedule: Q04DX003 (ip), vehicle: Klucel (hydroxypropylcellulose) (HPC) 96 % of control | dose: 400.0 mg/kg/injection, schedule: Q04DX003 (ip), vehicle: Klucel (hydroxypropylcellulose) (HPC) 94 % of control

CC[Si](CC)(CC)O[Si](CC)(CC)CC
inactive: [3] 102 % of control | [5] 94 % of control | [7] 97 % of control

CS(=O)(=O)OCCCl
inactive: dose: 18.8 mg/kg/injection, schedule: Q01DX010 (ip), vehicle: saline 92 % of control and 96 % of control | dose: 37.5 mg/kg/injection, schedule: Q01DX010 (ip), vehicle: saline 92 % of control and 100 % of control | dose: 75.0 mg/kg/injection, schedule: Q01DX010 (ip), vehicle: saline 101 % of control and 104 % of control | dose: 150.0 mg/kg/injection, schedule: Q01DX010 (ip), vehicle: saline 97 % of control and 102 % of control

CCc1ccc(NC2=NCCO2)cc1
inactive: [11] 112 % of control | dose: 25.0 mg/kg/injection, schedule: Q01DX009 (ip), vehicle: Klucel (hydroxypropylcellulose) (HPC) 100 % of control | [12] 114 % of control | dose: 50.0 mg/kg/injection, schedule: Q01DX009 (ip), vehicle: Klucel (hydroxypropylcellulose) (HPC) 95 % of control | [13] 101 % of control | [8] 102 % of control

CCn1c[n+](-c2ccccc2)cn1
inactive: [2] 106 % of control

CCN(CC)CC(Cl)COc1ccccc1C (stereo not drawn)
inactive: [2] 91 % of control | [4] 94 % of control

N/N=C(\N)c1nn(C2OC(CO)C(O)C2O)c2ncnc(N)c12 (stereo not drawn)
inactive: dose: 60.0 mg/kg/injection, schedule: Q01DX005 (ip), vehicle: saline 116 % of control | dose: 100.0 mg/kg/injection, schedule: Q01DX005 (ip), vehicle: saline 124 % of control | dose: 200.0 mg/kg/injection, schedule: Q01DX005 (ip), vehicle: saline 113 % of control

COc1nc(N)nc2nc(N)c(-c3ccc(N(CCO)CCO)cc3)nc12
inactive: [2] 95 % of control | [4] 96 % of control | [6] 95 % of control

CCOc1ccccc1NC(=O)Nc1cccc(F)c1
inactive: [9] 104 % of control | [10] 96 % of control | dose: 400.0 mg/kg/injection, schedule: Q01DX009 (ip), vehicle: saline with Tween-80 93 % of control

CC(C)CC(NS(=O)(=O)Cc1ccccc1)C(=O)NN (stereo not drawn)
inactive: dose: 100.0 mg/kg/injection, schedule: Q01DX001 (ip), vehicle: other 98 % of control | dose: 200.0 mg/kg/injection, schedule: Q01DX001 (ip), vehicle: other 96 % of control | dose: 400.0 mg/kg/injection, schedule: Q01DX001 (ip), vehicle: other 110 % of control

NCCCC1C(CN)C2CC1C1C3CCC(C3)C21 (stereo not drawn)
inactive: dose: 3.12 mg/kg/injection, schedule: Q04DX003 (ip), vehicle: saline 100 % of control | dose: 6.25 mg/kg/injection, schedule: Q04DX003 (ip), vehicle: saline 100 % of control | [14] 106 % of control | [11] 97 % of control | [15] 110 % of control | [12] 97 % of control and 103 % of control | [16] 106 % of control | [13] 105 % of control | [8] 98 % of control

CN(C)CCC(=O)c1ccccc1
inactive: [14] 101 % of control | [15] 101 % of control | [12] 105 % of control | [1] 103 % of control | [16] 98 % of control | [13] 101 % of control | [2] 103 % of control | [8] 100 % of control

CCCCCCCCCCCCCCCCCCNC(=O)Cc1ccc(N(CCCl)CCCl)cc1
inactive: dose: 100.0 mg/kg/injection, schedule: Q01DX009 (ip), vehicle: Klucel (hydroxypropylcellulose) (HPC) 94 % of control | dose: 200.0 mg/kg/injection, schedule: Q01DX009 (ip), vehicle: Klucel (hydroxypropylcellulose) (HPC) 95 % of control

O=C(O)c1ccc([N+](=O)[O-])c(P(=O)(O)O)c1
inactive: dose: 75.0 mg/kg/injection, schedule: Q01DX001 (ip), vehicle: saline 96 % of control | dose: 150.0 mg/kg/injection, schedule: Q01DX001 (ip), vehicle: saline 109 % of control
